“Also recorded” adds a separate entry of the source.
Columns and labels:
[1] = system: potassium channels in A549, lung carcinoma cell lines; assay: FLUXOR potassium (K^+) channel assay, Thallium (Tl^+) indicator; type: cell-based, human; conditions: HAMLET 35 μM; for potassium channel activity (fluorescence signal): oleate 175 μM (5× the HAMLET concentration), peptides mixed with oleate and immediately added; for effect of channel blocker on K^+ flux in response to HAMLET: carcinoma cells, 30 minutes pretreatment
Protocol: The FLUXOR™ potassium (K^+) channel assay was performed on the TECAN infinite F200 (Tecan Group, Switzerland), according to the manufacturer's instructions (Invitrogen). Briefly, this involved FLUXOR™ loading buffer (Hank's Balanced Saline Solution, (HBSS) buffered with 20 mM HEPES and pH adjusted to 7.4 with NaOH. POWERLOAD™ concentrate and water-soluble Probenecid were used respectively to enhance the dye solubility and retention, respectively. Media were removed from the cell plates manually, and 80 μL of loading buffer containing the FLUXOR™ dye mix was applied to each well. Once inside the cell, the nonfluorescent AM ester form of the FLUXOR™ dye is cleaved by endogenous esterases into a thallium-sensitive indicator. The dye was loaded for 60 minutes at room temperature and then removed with the supernatant. After washing with dye-free PBS buffer, a final volume of 80 μL assay buffer containing water-soluble probenecid was added. Cells received one of the following channel inhibitors: 3.3 μL per well of 30 mM amiloride, 3.0 μL of 32 mM BaCl2, 1.8 μL of 5.4 mM gadolinium, 3 μL 3.2 mM tetrandrine and 2.3 μL of 2.6 mM ruthenium red, and were then incubated at room temperature (23-25° C.) for 30 minutes to allow equilibration of the test compounds. Prior to injection, stimulation buffer was prepared from the chloride-free buffer and thallium reagents provided in the kit as well as HAMLET, to achieve a final added concentrations of 2 mM free Tl+ and 35 μM HAMLET after 1:5 dilution upon injection of the stimulus buffer onto cells that had been loaded with FLUXOR™ dye.
To distinguish Ca^2+ mobilization from intracellular stores from the influx of extracellular Ca^2+, EGTA was then added to the cell medium. […] K^+ fluxes across tumor cell membranes were subsequently quantified under the same experimental conditions, using the fluorophore FLUXOR™, which fluoresces after thallium has entered cells through K^+ channels.
Potassium channel activity was therefore measured in A549, lung carcinoma cell lines using an indicator, which emits fluorescence signal upon entering the cells via opened potassium channels, Thallium (Tl^+) indicator (FIG. 18).

[2] = system: A549 lung carcinoma cells; assay: cell death assay (trypan blue exclusion, ATP levels); type: cell-based, human; conditions: for tumoricidal effect (trypan blue exclusion, ATP): Example 2, 3 hours, molar concentrations based on stoichiometry in HAMLET, dose response; for effect of channel inhibitor on HAMLET-induced cell death: 30 minutes pretreatment, HAMLET three hours
Protocol: Cells were detached from cell culture flasks with versen (0.2 g EDTA in 200 ml H2O and 800 ml PBS), washed with PBS and resuspended in serum-free RPMI-1640. HAMLET dissolved in PBS was incubated with cells (0.5×10^6/ml for A549, A498 and HeLa cells; 1×10^6/ml for Jurkat) at 37° C. FCS was added after 1 hour. Cell death was quantified by trypan blue exclusion (Chroma Gesellschaft Schmid & Co) or by measuring ATP levels (ATPlite Kit, PerkinElmer, Infinite 200, Tecan). Light images were captured using the HOLOMONITOR™ M2 digital holographic microscope (Phase Holographic Imaging AB, Lund, Sweden).
For studies with inhibitors, cells were pretreated for 30 minutes. Inhibitors used were Gadolinium chloride (GdCl3, 100 μM), Barium chloride (BaCl2, 1 mM), Ruthenium red (30 μM), tetrandrine (10 μM) and amiloride (1 mM), all from Sigma Aldrich. For p38 inhibition, SB202190 (20 μM, Sigma Aldrich) or BIRB796 (10 μM, Axon Medchem) dissolved in DMSO was used. The wells were washed twice with PBS and new medium with inhibitor was added. For RNA interference, FlexiTube siRNA Premixes against MAPK11 (SI00606053), MAPK14 (SI00300769) and All Star Negative Control siRNA (SI03650318) from Qiagen was used. A549 forward was transfected using 25 nM final siRNA concentration in 24-well plate. After 48 hours, knockdown was examined by Western blot (anti-p38, 1:1000, Cell Signaling) and RT-PCR (MAPK14, QT00079345, QIAGEN).
To examine if functional ion channels are important for the tumoricidal activity of HAMLET, A549 lung carcinoma cells in suspension were pretreated with the channel inhibitors for 30 minutes and exposed to increasing concentrations of HAMLET for three hours.
A549 cells were seeded to a density of 0.8-1.0×10^6 cells/well in RPMI without FCS. Different volumes of HAMLET/oleate and oleic acid solutions were added. The cells were incubated for 1 hour at 37° C. 5% CO2 for 1 hour before 50 μl of FCS (5% final concentration) were added to the wells. The cells were then further incubated for additional 2 hours before the viability were determined by trypan blue exclusion and ATP measurements.

`CCCCCCCC/C=C\CCCCCCCC(=O)[O-].[Na+]` [oleate, sodium oleate] was tested, and the “potassium channel activity (fluorescence signal)” value [1] was “potassium channels were activated by oleate alone, but at lower efficiency than HAMLET”, the “tumoricidal effect (trypan blue exclusion, ATP)” value [2] was “tumoricidal; also recorded: stronger than that of oleic acid” and the “concentration at which tumor cells were killed, relative to concentration in HAMLET” value ([2]; Example 2, dose response) was “three to five times higher than the concentration in HAMLET”. The “tumoricidal effect at concentrations corresponding to 15× that of HAMLET (35 μM)” value ([2]; FIG. 7F, cell line not stated) was “not tumoricidal”.

`NC(N)=NC(=O)c1nc(Cl)c(N)nc1N` [amiloride, 3,5-diamino-6-chloro-N-(diaminomethylene)pyrazine-2-carboxamide] was tested, and the “effect of channel blocker on K^+ flux in response to HAMLET” value [1] was “intermediate inhibition” and the “effect of channel inhibitor on HAMLET-induced cell death” value [2] was “markedly reduced cell death”.

For `[Ba+2].[Cl-].[Cl-]` [BaCl2, barium chloride], the “effect of channel blocker on K^+ flux in response to HAMLET” value [1] was “intermediate inhibition” and the “effect of channel inhibitor on HAMLET-induced cell death” value [2] was “markedly reduced cell death”.

B1: HAMLET (protein, UniProt P00709 20-142, looked up)
Alpha-lactalbumin: KQFTKCELSQLLKDIDGYGGIALPELICTMFHTSGYDTQAIVENNESTEYGLFQISNKLWCKSSQVPQSRNICDISCDKFLDDDITDDIMCAKKILDIKGIDYWLAHKALCTEKLEQWLCEKL
modifications: oleic acid complex
For B1, the “potassium channel activity (fluorescence signal)” value [1] was “rapidly opened the K^+ channels; also recorded: triggers a rapid potassium flux”, the “tumoricidal effect (trypan blue exclusion, ATP)” value [2] was “kills tumor cells more efficiently than protein free oleate or oleic acid” and the “lethal response (trypan blue exclusion, ATP levels)” value ([2]; increasing concentrations, three hours, no inhibitors) was “rapid, dose-dependent lethal response”.
